These results are taken from US20130090476A1, “Thiazolylpiperidine Derivatives as Fungicides” (priority 2009, published 2013).

The data set is described as follows: logP determination by HPLC (EEC Directive 79/831 Annex V.A8), LC-MS.
[1] abbreviates: pH 2.7, log P (pH2.7), pH 2.7, value given in the preparation text.
Where [2] appears, read: pH 2.7, logP, * acidic range, pH 2.7, 0.1% aqueous formic acid/acetonitrile.
The mark [3] stands for this setting: * acidic range, pH 2.7, 0.1% aqueous formic acid/acetonitrile.

Regarding `CC(C)(C)OC(=O)N1CCC(c2nc(CSC34CC5CC(CC(C5)C3)C4)cs2)CC1` [IV-2, tert-Butyl 4-(4-{[(3S,5S,7S)-adamantan-1-ylsulphanyl]methyl}-1,3-thiazol-2-yl)piperidine-1-carboxylate], under setting [1], the chromatographic logP was 6.66.

`Cc1cc(C(F)(F)F)nn1CC(=O)N1CCC(c2nc(C[S+]([O-])c3nnnn3-c3ccccc3)cs2)CC1` (stereo not drawn) [Compound I-14, 2-[5-Methyl-3-(trifluoromethyl)-1H-pyrazol-1-yl]-1-[4-(4-{[(1-phenyl-1H-tetrazol-5-yl)sulphinyl]methyl}-1,3-thiazol-2-yl)piperidin-1-yl]ethanone]: the chromatographic logP is, setting by setting: under setting [1], 2.69; under setting [2], 2.69.

With `Cc1cc(C(F)(F)F)nn1CC(=O)N1CCC(c2nc(C[S+]([O-])c3cccc4cccnc34)cs2)CC1` (stereo not drawn) [Compound I-12, 1-(4-{4-[(Quinolin-8-ylsulphinyl)methyl]-1,3-thiazol-2-yl}piperidin-1-yl)-2-[5-methyl-3-(trifluoromethyl)-1H-pyrazol-1-yl]ethanone], the chromatographic logP is 2.48 under setting [1] and 2.48 under setting [2].

Regarding `Cc1ccc(C)c(NC(=O)N2CCC(c3nc(CSc4cccc5ccccc45)cs3)CC2)c1` [Compound I-47], the logP under setting [3] is recorded as 4.37*.

On to `CC(C)(C)OC(=O)N1CCC(c2nc(CSC3=NOC(c4ccccc4)C3)cs2)CC1` (stereo not drawn) [IV-6, tert-Butyl 4-[4-({[5-phenyl-4,5-dihydro-1,2-oxazol-3-yl]sulphanyl}methyl)-1,3-thiazol-2-yl]piperidine-1-carboxylate], for which the chromatographic logP under setting [1] was determined as 4.25.

As for `Cc1cc(C(F)(F)F)nn1CC(=O)N1CCC(c2nc(CSC3=NOC(c4ccccc4)C3)cs2)CC1` (racemic) [Compound I-88], the logP under setting [3] is reported as 3.52*.

With `Fc1ccc(Br)c(NC(=S)N2CCC(c3nc(CSc4nnnn4-c4ccccc4)cs3)CC2)c1` [Compound I-66], the logP under setting [3] is recorded as 3.46*.

Regarding `Cc1ccc(F)cc1NC(=O)N1CCC(c2nc(CSc3nnnn3-c3ccccc3)cs2)CC1` [Compound I-63], under setting [3], the logP is 3.2*.

For the compound `O=C(Cn1nc(C(F)(F)F)cc1C(F)(F)F)N1CCC(c2nc(CS(=O)(=O)c3nnnn3-c3ccccc3)cs2)CC1` [Compound I-26], the logP under setting [3] is on record as 3.59*.

Take `COc1ccc(Cl)cc1NC(=O)N1CCC(c2nc(CSc3nnnn3-c3ccccc3)cs2)CC1` [Compound I-79]: under setting [3], the logP is 3.8*.

Take `CC(C)(C)OC(=O)N1CCC(c2nc(CSc3nnnn3-c3ccccc3)cs2)CC1` [IV-4, tert-Butyl 4-(4-{[(1-phenyl-1H-tetrazol-5-yl)sulphanyl]methyl}-1,3-thiazol-2-yl)piperidine-1-carboxylate]: under setting [1], the chromatographic logP was found to be 3.91.

With `O=C(Nc1cc(F)ccc1F)N1CCC(c2nc(CSc3nnnn3-c3ccccc3)cs2)CC1` [Compound I-56], the logP under setting [3] is on record as 3.27*.

On to `CC(C)(C)OC(=O)N1CCC(c2nc(CSC3CCCCC3)cs2)CC1` [IV-3, tert-Butyl 4-{4-[(cyclohexylsulphanyl)methyl]-1,3-thiazol-2-yl}piperidine-1-carboxylate], for which, under setting [1], the chromatographic logP was found to be 5.45.

Under setting [1], `ClC1=NOC(c2ccccc2)C1` (stereo not drawn) [Compound X-1, 3-Chloro-5-phenyl-4,5-dihydro-1,2-oxazole] returned a chromatographic logP of 2.36.

Turning to `Cc1cc(C(F)(F)F)nn1CC(=O)N1CCC(c2nc(C[S+]([O-])C3CCCCC3)cs2)CC1` (stereo not drawn) [Compound I-11, 1-(4-{4-[(Cyclohexylsulphinyl)methyl]-1,3-thiazol-2-yl}piperidin-1-yl)-2-[5-methyl-3-(trifluoromethyl)-1H-pyrazol-1-yl]ethanone], the chromatographic logP was 2.55 under setting [1] and 2.55 under setting [2].

On to `Cc1cc(C(F)(F)F)nn1CC(=O)N1CCC(c2nc(CSc3nnnn3-c3ccccc3)cs2)CC1` [Compound I-4, 2-[5-Methyl-3-(trifluoromethyl)-1H-pyrazol-1-yl]-1-[4-(4-{[(1-phenyl-1H-tetrazol-5-yl)sulphanyl]methyl}-1,3-thiazol-2-yl)piperidin-1-yl]ethanone], for which the chromatographic logP was 3.25 under setting [1]; 3.25 under setting [2]; 3.26 (pH 7.8, logP, ** neutral range, pH 7.8, 0.001 molar aqueous ammonium bicarbonate/acetonitrile).

Turning to `O=C(Cn1nc(C(F)F)cc1C(F)F)N1CCC(c2nc(CSc3ccccc3-c3ccccc3)cs2)CC1` [Compound I-19], under setting [3], the logP was 4.36*.

As to `Cc1ccc(C)c(CC(=O)N2CCC(c3nc(CSC45CC6CC(CC(C6)C4)C5)cs3)CC2)c1` [Compound I-27], under setting [3], the logP is 5.99*.

As to `O=C(Nc1cc(C(F)(F)F)ccc1Cl)N1CCC(c2nc(CSc3nnnn3-c3ccccc3)cs2)CC1` [Compound I-76], the logP under setting [3] is 4.2*.

For the compound `Cc1noc(C)c1NC(=S)N1CCC(c2nc(CSc3nnnn3-c3ccccc3)cs2)CC1` [Compound I-99], the logP under setting [3] is on record as 2.7*.

As for `Cc1ccc(C)c(NC(=O)N2CCC(c3nc(CSC4CCCCC4)cs3)CC2)c1` [Compound I-16], under setting [3], the logP is 4.38*.

`CC(C)(C)OC(=O)N1CCC(c2nc(CSc3cccc4ccccc34)cs2)CC1` [IV-1, tert-Butyl 4-{4-[(1-naphthylsulphanyl)methyl]-1,3-thiazol-2-yl}piperidine-1-carboxylate] came in with a chromatographic logP under setting [1] of 5.33.

As for `Cc1cc(C(F)(F)F)nn1CC(=O)N1CCC(c2nc(CSc3nccn3-c3ccccc3)cs2)CC1` [Compound I-61], the logP under setting [3] was 2.22*.

As to `Cc1ccc(C)c(CC(=O)N2CCC(c3nc(CSc4cccc5ccccc45)cs3)CC2)c1` [Compound I-43], the logP under setting [3] is recorded as 4.86*.

For `CC(C)(C)OC(=O)N1CCC(c2nc(CSc3cccc4cccnc34)cs2)CC1` [IV-5, tert-Butyl 4-{4-[(quinolin-8-ylsulphanyl)methyl]-1,3-thiazol-2-yl}piperidine-1-carboxylate], the chromatographic logP under setting [1] stood at 3.71.

In the case of `Cc1cc(C(F)(F)F)nn1CC(=O)N1CCC(c2nc(CSc3ccccc3-c3ccccc3)cs2)CC1` [Compound I-69], the logP under setting [3] is 4.49*.

For the compound `O=C(Cn1nc(C(F)F)cc1C(F)F)N1CCC(c2nc(CSc3nccn3-c3ccccc3)cs2)CC1` [Compound I-65], the logP under setting [3] is reported as 2.13*.

For the compound `Cc1cc(C(F)(F)F)nn1CC(=O)N1CCC(c2nc(CSc3cccc4cccnc34)cs2)CC1` [Compound I-5, 1-(4-{4-[(Quinolin-8-ylsulphanyl)methyl]-1,3-thiazol-2-yl}piperidin-1-yl)-2-[5-methyl-3-(trifluoromethyl)-1H-pyrazol-1-yl]ethanone], the chromatographic logP runs as follows: under setting [1], 3; under setting [2], 3.

As to `COc1ccc(OC)c(NC(=O)N2CCC(c3nc(CSc4nnnn4-c4ccccc4)cs3)CC2)c1` [Compound I-25], the logP under setting [3] is 3.26*.

For the compound `Cc1noc(C)c1NC(=O)N1CCC(c2nc(CSc3nnnn3-c3ccccc3)cs2)CC1` [Compound I-75], the logP under setting [3] is on record as 2.22*.

As to `O=C(Cn1nc(C(F)F)cc1C(F)F)N1CCC(c2nc(CSC3=NOC(c4ccccc4)C3)cs2)CC1` (stereo not drawn) [Compound I-58, 2-[3,5-Bis(difluoromethyl)-1H-pyrazol-1-yl]-1-{4-[4-({[5-phenyl-4,5-dihydro-1,2-oxazol-3-yl]sulphanyl}methyl)-1,3-thiazol-2-yl]piperidin-1-yl}ethanone], the chromatographic logP reads like this: under setting [1], 3.4; under setting [2], 3.4.

Consider `S=C(Nc1cc(Cl)ccc1Cl)N1CCC(c2nc(CSc3nnnn3-c3ccccc3)cs2)CC1` [Compound I-52], for which the logP under setting [3] is on record as 3.77*.

A word on the chromatographic logP: it is lipophilicity estimated from chromatographic retention. High values mean higher lipophilicity, low ones lower lipophilicity.
